Data as given in patent US20200375929A1, “METHODS AND COMPOSITIONS FOR THE TREATMENT OF DISEASES ASSOCIATED WITH CANCER, INFLAMMATION, OR IMMUNE RESPONSE” (Washington University, priority 2017, published 2020).
Entries after “also recorded” stand apart in the source; their conditions may differ. Structures can show the parent of a compound that is named as a salt. Where a SMILES comes first, the peptide text is derived from it. The star is where a group is joined. Cbz = O=C(OCc1ccccc1)*

Tests used:
IκBζ [1] = assay: LPS-induced Ikb-ζ protein induction in BMDMs (western blot); format: cell-based, mouse; conditions: for LPS-induced Ikb-ζ induction, protein level: BMDMs treated with compound 12 h, then LPS 100 ng/ml; for effect of added agent on Ikb-ζ induction in DI-treated cells: DI 12 h plus agent
Method: (§1) BMDM were prepared from 6- to 12-week-old mice as described 1 and cultured in RMPI-1640 medium supplemented with 10% fetal bovine serum (FBS), 2 mM L-glutamine, and 100 U/mL penicillin-streptomycin and mouse recombinant M-CSF ([…], Peprotech). For experiments, cells were seeded at concentration 10^6 cells/mL in tissue culture plates of various formats. The cells were treated with DI (250 μM (unless stated otherwise), cat #592498, Sigma), DMF (50 μM (unless stated otherwise), cat #242926, Sigma), 3-(ethoxycarbonyl)but-3-enoic acid (3MI, 5 μM, Aris Pharmaceuticals Inc.), 4-ethoxy-2-methylene-4-oxobutanoic acid (MI, Aris Pharmaceuticals Inc.) for 12 h and activated with lipopolysaccharide (LPS; 100 ng/mL; E. coli 0111:B4, Sigma) for 1 h or as indicated. In some experiments cells were stimulated with combination of LPS (20 ng/mL) and IFN-γ (50 ng/mL; Peprotech). In some experiments cells were treated with α-tocopherol (AT, 10 μM; Sigma), MitoTEMPO (MT, 500 μM; Sigma), N-acetylcysteine (NAC, 1 mM, Sigma), ethylester of GSH (EtGSH; 1 mM, Santa Cruz) or buthionene sulfoximine (BSO, 500 μM, Sigma) alone or in combination with DI for 12 h. In some experiments BMDMs were treated with DI for 12 h and bafilomycin A (BafA, 100 nM, Sigma) or MG132 (10 μM, Selleckchem) were added 30 min before subsequent LPS stimulation.
(§2) Cells were lysed in RIPA Lysis Buffer System (Santa Cruz) and heat-denatured at 95° C. for 5 min in reducing sample buffer (BioRad). Proteins were separated on 4%-20% polyacrylamide gradient gels (BioRad) and transferred onto 0.45 μm pore size PVDF membranes (Millipore). Non-specific binding was blocked with 5% skim milk (or 5% BSA when phospho-proteins were analyzed), and membranes were probed with primary antibodies specific to Nrf2 (#12721), HO-1 (#70081), IκBζ (mouse specific, #93726), IκBζ(#9244), ATF3 (#D2Y5W), IRAK1 (#4504; sensitivity of IRAK1 detection diminishes upon IRAK1 K63 ubiquitination), phospho-IKK (Ser176/180, #2697), p62/SQSTM1 (#5114), phospho-eIF2α (Ser51, #9721), eIF2α (#5324) from Cell Signaling; GAPDH (sc-25778), IκBα (sc-1643), ATF3 (sc-188), SDHA (sc-166909) from Santa Cruz; NQO1 (ab28947) from Abeam, followed by incubation with anti-rabbit-HRP (1:10,000; sc-2030) or anti-mouse-HRP (1:10,000; sc-2031) from Santa Cruz and Clarity western ECL substrate (Bio-Rad). Membranes were exposed to X-Ray films (Research Products International Corp.) and developed using SRX-101A film processor (Konica Minolta). GAPDH run on the same blot was used as loading control. After scanning of original films image brightness of some blots was adjusted and bands were cropped using ImageJ. Densitometry was performed using ImageJ.

IL6, IL12, IL1b, TNFα = assay: Cytokine production in LPS-stimulated BMDMs (ELISA); format: cell-based, mouse; conditions: then LPS; for effect of co-treatment on DI-mediated inhibition of cytokine (IL6) production: agent added simultaneously with DI; for LPS-induced cytokine production: BMDMs pretreated 12 h
Method: as §1
Cytokines in cell supernatants were analyzed using DuoSet® ELISA kits according to manufacturer protocol (R&D Systems). The supernatants from BMDMs were diluted 1:4, from human blood monocytes 1:3.

IκBζ [2] = assay: Ikb-ζ protein in LPS-stimulated human monocytes (western blot); format: cell-based; conditions: human blood monocytes, DI plus agent, LPS 1 h
Method: as §2, with “Membranes were exposed to X-Ray films (Research Products International Corp.) and developed using SRX-101A film processor (Konica Minolta). GAPDH run on the same blot was used as loading control. After scanning of original films image brightness of some blots was adjusted and bands were cropped using ImageJ. Densitometry was performed using ImageJ.” left out
Blood from healthy donors was acquired from LRS chambers supplied by the Mississippi Valley Regional Blood Center. […] After extensive washes to allow removal of non-adherent cells, monocytes (>95% purity) were harvested, counted and 5×10^5 cells were plated per well in 24-well plates. […]

ATF3 = ATF3 protein expression (western blot); format: cell-based, mouse; conditions: mouse macrophages and human monocytes, DI plus agent
Method: as §1, with “In some experiments BMDMs were treated with DI for 12 h and bafilomycin A (BafA, 100 nM, Sigma) or MG132 (10 μM, Selleckchem) were added 30 min before subsequent LPS stimulation.” left out
(§3) Cells were lysed in RIPA Lysis Buffer System (Santa Cruz) and heat-denatured at 95° C. for 5 min in reducing sample buffer (BioRad). […] Non-specific binding was blocked with 5% skim milk (or 5% BSA when phospho-proteins were analyzed), and membranes were probed with primary antibodies specific to Nrf2 (#12721), HO-1 (#70081), IκBζ (mouse specific, #93726), IκBζ(#9244), ATF3 (#D2Y5W), IRAK1 (#4504; sensitivity of IRAK1 detection diminishes upon IRAK1 K63 ubiquitination), phospho-IKK (Ser176/180, #2697), p62/SQSTM1 (#5114), phospho-eIF2α (Ser51, #9721), eIF2α (#5324) from Cell Signaling; GAPDH (sc-25778), IκBα (sc-1643), ATF3 (sc-188), SDHA (sc-166909) from Santa Cruz; NQO1 (ab28947) from Abeam, followed by incubation with anti-rabbit-HRP (1:10,000; sc-2030) or anti-mouse-HRP (1:10,000; sc-2031) from Santa Cruz and Clarity western ECL substrate (Bio-Rad). […]

Nrf2 = Nrf2 response in BMDMs (western blot, target genes); format: cell-based, mouse; conditions: 12 h treatment
Method: as §1, with “In some experiments BMDMs were treated with DI for 12 h and bafilomycin A (BafA, 100 nM, Sigma) or MG132 (10 μM, Selleckchem) were added 30 min before subsequent LPS stimulation.” left out
as §3

STAT3 = STAT3 activation in LPS-stimulated BMDMs (western blot); format: cell-based, mouse; conditions: BMDMs, 12 h pretreatment
Method: as §1, with “In some experiments BMDMs were treated with DI for 12 h and bafilomycin A (BafA, 100 nM, Sigma) or MG132 (10 μM, Selleckchem) were added 30 min before subsequent LPS stimulation.” left out
as §3

HBL1 cells line (ABC) = assay: DLBCL cell viability, resazurin assay, ABC subtype; format: cell-based; conditions: HBL1, 4 days, refreshed daily; DI 125-250 μM
[3] = system: LY1 and LY7 (GCB) cell lines; assay: DLBCL cell viability, resazurin assay, GCB subtype; format: cell-based; conditions: LY1 and LY7, 4 days, refreshed daily; DI 125-250 μM

Structure (SMILES): COC(=O)CC(=O)OC [DM, Dimethyl malonate, reference compound]
- LPS-induced Ikb-ζ induction, protein level (IκBζ [1]): does not affect Ikbζ expression

Structure (SMILES): CC(C)C[C@@H](C=O)NC(=O)[C@H](CC(C)C)NC(=O)[C@H](CC(C)C)NC(=O)OCc1ccccc1 [MG132, reference compound] (Cbz-Leu-Leu-Leu-aldehyde)
- effect of added agent on Ikb-ζ induction in DI-treated cells (IκBζ [1]; BMDMs, LPS): did not affect Ikb-ζ levels; also recorded: neither rescued IκBζ induction

Structure (SMILES): CCOC(=O)CNC(=O)[C@H](CS)NC(=O)CC[C@H](N)C(=O)O [EtGSH, ethylester of GSH, reference compound]
- effect of added agent on Ikb-ζ induction in DI-treated cells (IκBζ [1]; BMDMs, LPS): restored LPS-mediated IκBζ induction
- effect of co-treatment on DI-mediated inhibition of cytokine (IL6) production (IL6, IL12, IL1b, TNFα): reversed the effect of DI
- effect of co-treatment on IκBζ induction in DI-treated cells (IκBζ [2]): restored LPS-mediated IκBζ induction
- DI-mediated ATF3 expression upon co-treatment (ATF3): efficiently decreased

Structure (SMILES): C=C(CC(=O)OCC)C(=O)O [MI, 4-ethoxy-2-methylene-4-oxobutanoic acid]
- LPS-induced Ikb-ζ induction, protein level (IκBζ [1]): did not
- effect on IκBζ/IL-6 in combination with BSO (IκBζ [1]; BMDMs, compound plus BSO 500 μM, LPS): unlocked the effect

Structure (SMILES): COC(=O)/C=C/C(=O)OC [DMF, Dimethyl fumarate, reference compound]
- LPS-induced Ikb-ζ induction, protein level (IκBζ [1]): strongly inhibited Ikb-ζ induction; also recorded: inhibited IκBζ induction
- LPS-induced cytokine production (IL6, IL12, IL1b, TNFα): inhibit IL6 but not TNF production; also recorded: selective inhibition of IL-6
- Nrf2 response (Nrf2 protein, target genes) (Nrf2): triggered Nrf2 response
- STAT3 activation (Y705 phosphorylation) (STAT3): effective to inhibit STAT3 activation

Structure (SMILES): CO/C1=C\C(C)=C\[C@@H](C)[C@@H](O)[C@@H](C)C/C(C)=C/C=C/[C@H](OC)[C@@H]([C@@H](C)[C@@H](O)[C@H](C)[C@@]2(O)C[C@@H](O)[C@H](C)[C@@H](C(C)C)O2)OC1=O [bafilomycin A, reference compound]
- effect of added agent on Ikb-ζ induction in DI-treated cells (IκBζ [1]; BMDMs, LPS): neither rescued IκBζ induction

Structure (SMILES): C=C(CC(=O)O)C(=O)OCC [3MI, 3-(ethoxycarbonyl)but-3-enoic acid]
- LPS-induced Ikb-ζ induction, protein level (IκBζ [1]): inhibited IκBζ induction

Structure (SMILES): CC(=O)N[C@@H](CS)C(=O)O [NAC, N-acetylcysteine]
- effect of added agent on Ikb-ζ induction in DI-treated cells (IκBζ [1]; BMDMs, LPS): restored Ikb-ζ production; also recorded: restored LPS-mediated IκBζ induction
- effect of co-treatment on DI-mediated inhibition of cytokine (IL6) production (IL6, IL12, IL1b, TNFα): completely abrogated effect of DI when added simultaneously with DI
- effect of co-treatment on DI-mediated inhibition of cytokine (IL6) production (IL6, IL12, IL1b, TNFα; listed as N-acetylcysteine): reversed the effect of DI
- DI-mediated ATF3 expression upon co-treatment (ATF3): efficiently decreased

Structure (SMILES): CCCCS(=N)(=O)CCC(N)C(=O)O (stereo not shown) [BSO, buthionine sulfoximine, reference compound]
- LPS-induced cytokine production (IL6, IL12, IL1b, TNFα): does not inhibit cytokine production
- Nrf2 response (Nrf2 protein, target genes) (Nrf2): nor trigger Nrf2 response

Structure (SMILES): CN1CCCC(CN2c3ccccc3Sc3ccccc32)C1 (stereo not shown) [Mepazine, mepazine, reference compound]
- growth / toxicity, ABC DLBCL (HBL1 cells line (ABC)): inhibited growth of HBL1
- growth / toxicity, GCB DLBCL [3]: not LY1 and LY7
